Data on 22 compounds can be found in US20230135894A1, “MK2 DEGRADERS AND USES THEREOF” (Kymera Therapeutics, Inc., priority 2021, published 2023).

Test [1] addresses T1, MK2 (Homo sapiens, UniProt P49137). In words: MK2 degradation in human THP-1 monocytic cells (MSD, 24 h). More on the design: endogenous in cells; key to MK2 MSD THP-1 degradation 24 h GMean External Abs DC50: A (<0.001 μM); B (0.001-0.01 μM); C (0.01-0.1 μM); D (>0.1 μM); —: “-”=not tested or inactive. The conditions noted are these: for Dmax: THP-1, THP-1 cells; for DC50 / MK2 MSD THP-1 degradation 24 h GMean External Abs DC50: THP-1 cells; for DC50: read-out: MK2 MSD THP-1 degradation 24 h GMean External Abs DC50. The test is classed as cell-based. The procedure, abridged: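 THP-1 cells (200,000/well) treated 24 h at 37 °C with compound dilution series (up to 10 points, 0.1% DMSO). MK2 in RIPA lysates quantified by MSD sandwich immunoassay. DC50 from 4-parameter logistic fit, DMSO-treated cells as high and lysis buffer as low signal.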

Test [2] addresses T1, MK2. As to the kind of experiment: MK2 degradation in human SW1353 cells (MSD, 24 h). It counts as cell-based. Details: endogenous in cells; host or cells: SW-1353 (ATCC HTB-94). The conditions noted are these: for Dmax: read-out: MK2 MSD SW 1353 24 h Dmax %; for DC50: read-out: MK2 MSD SW1353 degradation 24 h GMean External Abs DC50. The procedure, abridged: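 SW1353 chondrosarcoma cells were treated with up to 10-point serial dilutions (0.1% DMSO) for 24 h at 37 °C, then lysed in RIPA buffer. MK2 levels were quantified by MSD sandwich immunoassay; DC50 came from a 4-parameter logistic fit normalised to DMSO-treated cells (high) and lysis buffer (low).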

T1 sequence (P49137 whole entry): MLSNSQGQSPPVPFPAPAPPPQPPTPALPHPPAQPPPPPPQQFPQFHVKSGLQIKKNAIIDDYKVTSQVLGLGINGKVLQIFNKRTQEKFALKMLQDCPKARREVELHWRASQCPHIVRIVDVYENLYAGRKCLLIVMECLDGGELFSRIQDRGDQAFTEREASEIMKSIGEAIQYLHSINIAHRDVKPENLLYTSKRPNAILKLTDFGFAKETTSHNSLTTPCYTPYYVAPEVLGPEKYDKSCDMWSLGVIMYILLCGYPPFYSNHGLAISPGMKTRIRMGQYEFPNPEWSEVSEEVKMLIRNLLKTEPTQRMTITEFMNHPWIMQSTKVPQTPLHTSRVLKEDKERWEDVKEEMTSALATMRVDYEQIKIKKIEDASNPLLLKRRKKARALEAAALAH

For orientation: Dmax means the largest share of the target that was removed. What is called DC50 is the midpoint of the concentration-degradation curve. `COc1ccc2c(c1N1CCN(CC3CCN(c4ccc(-c5ccc6c(ccc7sc8c(c76)NC[C@@H](C)NC8=O)n5)cn4)CC3)CC1)n(C)c(=O)n2C1CCC(=O)NC1=O` (stereo partly shown) [Compound I-256]: in test [1], the Dmax is greater than 75% and the half-maximal degradation concentration (DC50) was less than 1 nM. In test [2], the Dmax is greater than 75% and the DC50 is less than 1 nM.
As to `Cn1c(=O)n(C2CCC(=O)NC2=O)c2cccc(CCCCCCN3CC4(CCN(c5ccc6c(c5)Cn5cc(-c7ccc(F)cc7)cc5-c5nccn5-6)C4)C3)c21` (stereo not shown) [Compound I-257], the Dmax in test [1] and in test [2] was less than 50% each time. In addition, the DC50 in test [1] and in test [2] was greater than 100 nM in each case.
As to `Cc1cc(-c2ccc3c(ccc4sc5c(c43)NC[C@@H](C)NC5=O)n2)cnc1N1CCN(CCCc2ccc3c(c2)n(C)c(=O)n3C2CCC(=O)NC2=O)CC1` (stereo partly shown) [Compound I-258], in test [1], the maximal degradation (Dmax) was less than 50% and the DC50 was in the range of 1 to 10 nM. Besides, in test [2], the Dmax was 50 to 75% and the DC50 lay in the range of 1 to 10 nM.
Consider `Cc1nc(N2CCN(CCCc3ccc4c(c3)n(C)c(=O)n4C3CCC(=O)NC3=O)CC2)ccc1-c1ccc2c(ccc3sc4c(c32)NC[C@@H](C)NC4=O)n1` (stereo partly shown) [Compound I-259], for which, in test [1], the Dmax was less than 50% and the “MK2 MSD THP-1 degradation 24 h GMean External Abs DC50” value is “—”. Moreover, in test [2], the maximal degradation (Dmax) is greater than 75% and the DC50 was 1 to 10 nM.
As to `Cc1cc(N2CCN(CCCc3ccc4c(c3)n(C)c(=O)n4C3CCC(=O)NC3=O)CC2)ccc1-c1ccc2c(ccc3sc4c(c32)NC[C@@H](C)NC4=O)n1` (stereo partly shown) [Compound I-260], in test [1], the Dmax lay in the range of 50 to 75% and the “MK2 MSD THP-1 degradation 24 h GMean External Abs DC50” value is reported as “—”. For the same compound, in test [2], the Dmax was greater than 75% and the DC50 is less than 1 nM.
For `C[C@@H]1CN(C)c2c(sc3ccc4nc(-c5ccc(N6CCC(CN7CCN(c8cccc9c(N%10CCC(=O)NC%10=O)cncc89)CC7)CC6)cc5)ccc4c23)C(=O)N1` [Compound I-261], in test [1], the Dmax is less than 50% and the DC50 was greater than 100 nM. Moreover, in test [2], the maximal degradation (Dmax) is greater than 75% and the half-maximal degradation concentration (DC50) lay within 10 to 100 nM.
The like results for `C[C@@H]1CNc2c(sc3ccc4nc(-c5ccc(N6CCN(C7CN(c8cccc9c8n(C)c(=O)n9C8CCC(=O)NC8=O)C7)CC6)cc5)ccc4c23)C(=O)N1` (stereo partly shown) [Compound I-262] were, in that order, greater than 75%, less than 1 nM, greater than 75% and less than 1 nM.
On the same counts, the results for `C[C@@H]1Cc2[nH]c(-c3ccnc(-c4ccc(N5CCC(CN6CCC(c7ccc8c(c7)n(C)c(=O)n8C7CCC(=O)NC7=O)CC6)CC5)cc4)c3)cc2C(=O)N1` (stereo partly shown) [Compound I-263] are greater than 75%, less than 1 nM, greater than 75% and less than 1 nM.
The like results for `C[C@@H]1CNc2c(sc3ccc4nc(N5CCC(CN6CCN(c7ccc8c(c7)n(C)c(=O)n8C7CCC(=O)NC7=O)CC6)CC5)ccc4c23)C(=O)N1` (stereo partly shown) [Compound I-264] were, in that order, greater than 75%, 1 to 10 nM, greater than 75% and 1 to 10 nM.
Regarding `C[C@@H]1CNc2c(sc3ccc4nc(N5CCN(CC6CCN(c7ccc8c(c7)n(C)c(=O)n8C7CCC(=O)NC7=O)CC6)CC5)ccc4c23)C(=O)N1` (stereo partly shown) [Compound I-265], the Dmax in test [1] and in test [2] was greater than 75% in each case. The DC50 in test [1] and in test [2] was 1 to 10 nM throughout.
As to `C[C@@H]1CN(C)c2c(sc3ccc4nc(-c5ccc(N6CCN(CCCc7ccc8c(c7)n(C)c(=O)n8C7CCC(=O)NC7=O)CC6)cc5)ccc4c23)C(=O)N1` (stereo partly shown) [Compound I-266], in test [1], the Dmax was greater than 75% and the DC50 fell in the range of 1 to 10 nM. Besides, in test [2], the maximal degradation (Dmax) is greater than 75% and the DC50 was in the range of 1 to 10 nM.
For the compound `C[C@@H]1CN(C)c2c(sc3ccc4nc(-c5cccc(N6CCC(CN7CCN(c8cccc9c(N%10CCC(=O)NC%10=O)cncc89)CC7)CC6)c5)ccc4c23)C(=O)N1` [Compound I-267], the Dmax in test [1] and in test [2] was less than 50% each time. Also, the DC50 in test [1] and in test [2] was greater than 100 nM each time.
With `C[C@@H]1CN(C)c2c(sc3ccc4nc(-c5ccc(N6CCN(CC7CCN(c8ccc9c(c8)n(C)c(=O)n9C8CCC(=O)NC8=O)CC7)CC6)nc5)ccc4c23)C(=O)N1` (stereo partly shown) [Compound I-268], in test [1], the greatest degradation seen (Dmax) is greater than 75% and the DC50 was in the range of 1 to 10 nM. Further, in test [2], the greatest degradation seen (Dmax) is greater than 75% and the half-maximal degradation concentration (DC50) lay within 1 to 10 nM.
`C[C@@H]1CNc2c(sc3ccc4nc(-c5ccc(N6CCN(CC7CN(c8cccc9c8n(C)c(=O)n9C8CCC(=O)NC8=O)C7)CC6)cc5)ccc4c23)C(=O)N1` (stereo partly shown) [Compound I-269]: the Dmax in test [1] and in test [2] was greater than 75% each time. Also, the figures for the half-maximal degradation concentration (DC50) in test [1] and in test [2] were less than 1 nM and 1 to 10 nM, respectively.
With `C[C@@H]1CNc2c(sc3ccc4nc(-c5cnc(N6CCC(CN7CCN(c8cccc9c8n(C)c(=O)n9C8CCC(=O)NC8=O)CC7)CC6)nc5)ccc4c23)C(=O)N1` (stereo partly shown) [Compound I-270], the Dmax in test [1] and in test [2] was greater than 75% each time. For the same compound, the DC50 is less than 1 nM in test [1] and 1 to 10 nM in test [2].
On to `C[C@@H]1CNc2c(sc3ccc4nc(-c5cnc(N6CCC(CN7CCN(c8ccc9c(c8)n(C)c(=O)n9C8CCC(=O)NC8=O)CC7)CC6)nc5)ccc4c23)C(=O)N1` (stereo partly shown) [Compound I-271], for which the Dmax in test [1] and in test [2] was greater than 75% each time. Further, the DC50 in test [1] and in test [2] was less than 1 nM in each case.
Take `Cc1cc(-c2ccc3c(ccc4sc5c(c43)NC[C@@H](C)NC5=O)n2)cnc1N1CCN(CC2CCN(c3ccc4c(c3)n(C)c(=O)n4C3CCC(=O)NC3=O)CC2)CC1` (stereo partly shown) [Compound I-272]: in test [1], the Dmax was greater than 75% and the DC50 is less than 1 nM. Also, in test [2], the Dmax was greater than 75% and the DC50 is less than 1 nM.
Consider `C[C@@H]1CN(C)c2c(sc3ccc4nc(-c5ccc(N6CCN(CC7CCN(c8cccc9c8n(C)c(=O)n9C8CCC(=O)NC8=O)CC7)CC6)cc5)ccc4c23)C(=O)N1` (stereo partly shown) [Compound I-274], for which, in test [1], the Dmax was greater than 75% and the DC50 fell in the range of 10 to 100 nM. In test [2], the Dmax is greater than 75% and the DC50 lay within 10 to 100 nM.
Regarding `C[C@@H]1CNc2c(sc3ccc4nc(-c5ccnc(N6CCN(CCCc7ccc8c(c7)n(C)c(=O)n8C7CCC(=O)NC7=O)CC6)c5)ccc4c23)C(=O)N1` (stereo partly shown) [Compound I-275], in test [1], the Dmax is greater than 75% and the DC50 is less than 1 nM. Besides, in test [2], the maximal degradation (Dmax) was greater than 75% and the DC50 was less than 1 nM.
As to `C[C@@H]1CNc2c(sc3ccc4nc(-c5ccnc(N6CCN(CC7CCN(c8cccc9c8n(C)c(=O)n9C8CCC(=O)NC8=O)CC7)CC6)c5)ccc4c23)C(=O)N1` (stereo partly shown) [Compound I-276], in test [1], the Dmax was greater than 75% and the DC50 is 1 to 10 nM. For the same compound, in test [2], the Dmax is greater than 75% and the DC50 was 1 to 10 nM.
Take `C[C@@H]1CNc2c(sc3ccc4nc(-c5ccnc(N6CCC(CN7CCN(c8ccc9c(c8)n(C)c(=O)n9C8CCC(=O)NC8=O)CC7)CC6)c5)ccc4c23)C(=O)N1` (stereo partly shown) [Compound I-277]: the Dmax in test [1] and in test [2] was greater than 75% throughout. Moreover, the DC50 in test [1] and in test [2] was less than 1 nM in each case.
Regarding `C[C@@H]1CNc2c(sc3ccc4nc(-c5ccnc(N6CCN(CC7CCN(c8ccc9c(c8)n(C)c(=O)n9C8CCC(=O)NC8=O)CC7)CC6)c5)ccc4c23)C(=O)N1` (stereo partly shown) [Compound I-278], the Dmax in test [1] and in test [2] was greater than 75% throughout. The DC50 in test [1] and in test [2] was less than 1 nM each time.
